Columns and labels:
[1] = target: T1, Dual specificity protein kinase CLK1 (Homo sapiens, UniProt P49759); assay: Binding affinity to CLK1 (unknown origin) assessed as change in melting temperature of protein at 10 uM by Sypro-orange dye based DSF assay
Target sequence in this assay (P49759 whole entry, looked up): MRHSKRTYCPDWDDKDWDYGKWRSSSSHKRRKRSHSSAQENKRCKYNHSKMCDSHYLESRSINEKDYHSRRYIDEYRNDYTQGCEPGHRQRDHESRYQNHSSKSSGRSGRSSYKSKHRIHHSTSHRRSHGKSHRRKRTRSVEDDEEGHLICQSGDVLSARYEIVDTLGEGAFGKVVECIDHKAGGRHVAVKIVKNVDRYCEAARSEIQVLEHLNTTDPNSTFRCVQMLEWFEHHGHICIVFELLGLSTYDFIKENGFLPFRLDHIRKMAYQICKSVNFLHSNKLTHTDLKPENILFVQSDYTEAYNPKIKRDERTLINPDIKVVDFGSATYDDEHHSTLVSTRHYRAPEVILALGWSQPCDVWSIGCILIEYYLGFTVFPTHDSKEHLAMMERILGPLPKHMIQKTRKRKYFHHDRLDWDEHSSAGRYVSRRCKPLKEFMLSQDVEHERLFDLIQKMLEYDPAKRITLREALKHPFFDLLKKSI

[2] = target: T2, Dual specificity tyrosine-phosphorylation-regulated kinase 2 (Homo sapiens) (UniProt Q92630); assay: Binding affinity to DYRK2 (unknown origin) assessed as change in melting temperature of protein at 10 uM by Sypro-orange dye based DSF assay
T2 sequence (whole entry): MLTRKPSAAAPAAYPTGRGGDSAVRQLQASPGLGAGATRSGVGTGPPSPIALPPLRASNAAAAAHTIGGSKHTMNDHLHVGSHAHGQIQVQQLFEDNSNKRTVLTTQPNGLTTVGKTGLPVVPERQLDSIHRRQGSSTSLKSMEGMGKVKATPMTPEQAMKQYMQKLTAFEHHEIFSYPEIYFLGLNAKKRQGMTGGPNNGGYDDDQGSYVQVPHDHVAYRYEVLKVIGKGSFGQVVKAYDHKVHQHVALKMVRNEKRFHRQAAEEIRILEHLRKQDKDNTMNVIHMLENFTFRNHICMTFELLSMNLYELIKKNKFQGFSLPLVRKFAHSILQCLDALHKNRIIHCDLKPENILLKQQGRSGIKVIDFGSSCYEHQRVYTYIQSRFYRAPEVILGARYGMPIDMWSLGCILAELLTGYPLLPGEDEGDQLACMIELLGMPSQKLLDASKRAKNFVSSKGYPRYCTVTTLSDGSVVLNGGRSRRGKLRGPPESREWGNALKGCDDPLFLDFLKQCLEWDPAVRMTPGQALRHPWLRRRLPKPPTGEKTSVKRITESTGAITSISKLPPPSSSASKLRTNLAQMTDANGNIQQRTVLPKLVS

[3] = target: Dual specificity protein kinase CLK2 (Homo sapiens, UniProt P49760); assay: Inhibition of CLK2 (unknown origin)
Chain of Dual specificity protein kinase CLK2 (P49760 whole entry): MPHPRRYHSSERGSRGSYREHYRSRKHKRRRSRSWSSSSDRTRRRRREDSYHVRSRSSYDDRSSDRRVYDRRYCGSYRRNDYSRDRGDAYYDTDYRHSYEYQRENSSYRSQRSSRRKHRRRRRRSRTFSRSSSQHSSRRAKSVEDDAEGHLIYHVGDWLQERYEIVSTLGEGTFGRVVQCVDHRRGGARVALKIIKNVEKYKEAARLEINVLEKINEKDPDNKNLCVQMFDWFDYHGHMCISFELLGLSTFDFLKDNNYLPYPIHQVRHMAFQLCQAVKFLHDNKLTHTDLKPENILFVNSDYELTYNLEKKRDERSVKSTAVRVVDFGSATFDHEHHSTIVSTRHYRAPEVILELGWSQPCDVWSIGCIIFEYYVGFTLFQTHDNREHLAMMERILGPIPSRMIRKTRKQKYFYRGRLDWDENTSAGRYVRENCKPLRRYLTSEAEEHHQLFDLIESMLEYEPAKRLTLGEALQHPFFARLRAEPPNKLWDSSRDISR

[4] = target: Glycogen synthase kinase-3 alpha (Homo sapiens, UniProt P49840); assay: Inhibition of GSK3A (unknown origin)
Chain of Glycogen synthase kinase-3 alpha (P49840 whole entry): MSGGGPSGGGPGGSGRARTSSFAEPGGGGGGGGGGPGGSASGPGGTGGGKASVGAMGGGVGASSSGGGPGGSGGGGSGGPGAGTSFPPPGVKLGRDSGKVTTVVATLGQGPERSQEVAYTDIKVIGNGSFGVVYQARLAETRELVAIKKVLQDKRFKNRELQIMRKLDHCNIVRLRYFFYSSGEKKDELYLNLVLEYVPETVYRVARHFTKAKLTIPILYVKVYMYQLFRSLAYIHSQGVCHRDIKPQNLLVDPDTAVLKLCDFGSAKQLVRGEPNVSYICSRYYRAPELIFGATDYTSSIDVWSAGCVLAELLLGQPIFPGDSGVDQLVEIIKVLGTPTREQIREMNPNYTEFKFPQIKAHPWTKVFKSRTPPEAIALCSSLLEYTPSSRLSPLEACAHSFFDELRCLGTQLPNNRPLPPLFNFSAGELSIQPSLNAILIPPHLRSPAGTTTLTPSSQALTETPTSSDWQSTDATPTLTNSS

[5] = target: T3, Dual specificity tyrosine-phosphorylation-regulated kinase 2 (Homo sapiens, UniProt Q92630); assay: Inhibition of DYRK2 (unknown origin)
T3 sequence (Q92630 whole entry): T2 sequence (whole entry)

[6] = target: T4, Dual specificity tyrosine-phosphorylation-regulated kinase 4 (Homo sapiens, UniProt Q9NR20); assay: Inhibition of DYRK4 (unknown origin)
T4 sequence (Q9NR20 whole entry): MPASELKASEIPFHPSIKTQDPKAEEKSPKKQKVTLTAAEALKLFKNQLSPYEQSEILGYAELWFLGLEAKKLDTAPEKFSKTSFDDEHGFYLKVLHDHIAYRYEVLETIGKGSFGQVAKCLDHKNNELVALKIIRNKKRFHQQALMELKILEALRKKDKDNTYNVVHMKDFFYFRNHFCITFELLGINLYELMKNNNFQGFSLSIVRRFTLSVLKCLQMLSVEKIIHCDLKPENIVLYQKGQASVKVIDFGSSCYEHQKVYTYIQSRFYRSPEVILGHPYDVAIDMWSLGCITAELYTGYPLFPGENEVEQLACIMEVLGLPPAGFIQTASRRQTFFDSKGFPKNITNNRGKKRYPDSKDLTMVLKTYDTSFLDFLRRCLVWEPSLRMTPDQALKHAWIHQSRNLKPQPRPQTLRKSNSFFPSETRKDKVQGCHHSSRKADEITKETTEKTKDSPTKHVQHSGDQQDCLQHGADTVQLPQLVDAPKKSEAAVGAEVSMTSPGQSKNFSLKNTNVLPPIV

[7] = target: T1, Dual specificity protein kinase CLK1; assay: Inhibition of CLK1 (unknown origin)
Target sequence in this assay (P49759 whole entry): as the sequence (P49759 whole entry, looked up) above

[8] = target: T5, Dual specificity tyrosine-phosphorylation-regulated kinase 3 (Homo sapiens, UniProt O43781); assay: Inhibition of DYRK3 (unknown origin)
T5 sequence (O43781 whole entry): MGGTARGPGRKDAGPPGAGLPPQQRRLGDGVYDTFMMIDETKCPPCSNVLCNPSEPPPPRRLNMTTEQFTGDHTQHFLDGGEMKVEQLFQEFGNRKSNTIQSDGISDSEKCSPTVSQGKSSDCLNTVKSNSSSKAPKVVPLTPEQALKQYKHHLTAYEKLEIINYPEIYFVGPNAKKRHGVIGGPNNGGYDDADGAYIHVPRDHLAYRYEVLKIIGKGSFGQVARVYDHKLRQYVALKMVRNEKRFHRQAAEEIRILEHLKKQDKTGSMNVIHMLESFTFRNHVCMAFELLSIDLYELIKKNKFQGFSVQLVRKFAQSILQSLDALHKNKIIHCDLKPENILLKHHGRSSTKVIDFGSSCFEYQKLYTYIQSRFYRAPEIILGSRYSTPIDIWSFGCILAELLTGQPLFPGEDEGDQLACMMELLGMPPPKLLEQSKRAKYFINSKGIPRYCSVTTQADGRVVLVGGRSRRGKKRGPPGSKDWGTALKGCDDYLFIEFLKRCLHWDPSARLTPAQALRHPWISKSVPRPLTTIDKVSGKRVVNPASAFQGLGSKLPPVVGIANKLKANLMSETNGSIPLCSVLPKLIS

[9] = target: Dual specificity protein kinase CLK4 (Homo sapiens, UniProt Q9HAZ1); assay: Inhibition of CLK4 (unknown origin)
Chain of Dual specificity protein kinase CLK4 (Q9HAZ1 whole entry): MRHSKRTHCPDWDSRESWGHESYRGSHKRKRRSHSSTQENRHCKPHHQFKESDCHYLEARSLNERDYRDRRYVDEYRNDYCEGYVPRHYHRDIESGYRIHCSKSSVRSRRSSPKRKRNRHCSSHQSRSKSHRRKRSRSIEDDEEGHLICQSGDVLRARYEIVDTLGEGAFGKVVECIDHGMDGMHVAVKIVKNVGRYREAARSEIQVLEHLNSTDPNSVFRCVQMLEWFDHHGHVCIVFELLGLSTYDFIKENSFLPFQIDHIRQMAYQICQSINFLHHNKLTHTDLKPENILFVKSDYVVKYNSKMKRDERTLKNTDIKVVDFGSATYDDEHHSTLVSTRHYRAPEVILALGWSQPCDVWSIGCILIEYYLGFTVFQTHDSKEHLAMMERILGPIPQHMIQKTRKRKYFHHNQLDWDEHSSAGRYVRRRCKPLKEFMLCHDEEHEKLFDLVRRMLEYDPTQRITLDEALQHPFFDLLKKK

[10] = target: T6, Glycogen synthase kinase-3 beta (Homo sapiens, UniProt P49841); assay: Inhibition of GSK3B (unknown origin)
Target sequence in this assay (P49841 whole entry): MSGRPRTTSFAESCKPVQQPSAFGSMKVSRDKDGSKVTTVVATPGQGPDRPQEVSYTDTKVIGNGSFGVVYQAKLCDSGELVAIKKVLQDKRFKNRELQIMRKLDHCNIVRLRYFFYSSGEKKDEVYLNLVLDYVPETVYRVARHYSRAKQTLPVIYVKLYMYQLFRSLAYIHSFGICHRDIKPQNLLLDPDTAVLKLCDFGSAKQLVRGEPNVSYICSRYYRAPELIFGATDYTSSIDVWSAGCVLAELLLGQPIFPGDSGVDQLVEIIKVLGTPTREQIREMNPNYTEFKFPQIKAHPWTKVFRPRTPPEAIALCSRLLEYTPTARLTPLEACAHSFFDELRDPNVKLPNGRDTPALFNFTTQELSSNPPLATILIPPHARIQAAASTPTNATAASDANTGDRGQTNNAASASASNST

[11] = target: Dual specificity tyrosine-phosphorylation-regulated kinase 1A (Homo sapiens) (UniProt Q13627); assay: Binding affinity to 6x-His-tagged DYRK1A (unknown origin) assessed as change in melting temperature of protein at 10 uM by Sypro-orange dye based DSF assay
[12] = target: Dual specificity protein kinase CLK3 (Homo sapiens, UniProt P49761); assay: Inhibition of CLK3 (unknown origin)
Chain of Dual specificity protein kinase CLK3 (P49761 whole entry): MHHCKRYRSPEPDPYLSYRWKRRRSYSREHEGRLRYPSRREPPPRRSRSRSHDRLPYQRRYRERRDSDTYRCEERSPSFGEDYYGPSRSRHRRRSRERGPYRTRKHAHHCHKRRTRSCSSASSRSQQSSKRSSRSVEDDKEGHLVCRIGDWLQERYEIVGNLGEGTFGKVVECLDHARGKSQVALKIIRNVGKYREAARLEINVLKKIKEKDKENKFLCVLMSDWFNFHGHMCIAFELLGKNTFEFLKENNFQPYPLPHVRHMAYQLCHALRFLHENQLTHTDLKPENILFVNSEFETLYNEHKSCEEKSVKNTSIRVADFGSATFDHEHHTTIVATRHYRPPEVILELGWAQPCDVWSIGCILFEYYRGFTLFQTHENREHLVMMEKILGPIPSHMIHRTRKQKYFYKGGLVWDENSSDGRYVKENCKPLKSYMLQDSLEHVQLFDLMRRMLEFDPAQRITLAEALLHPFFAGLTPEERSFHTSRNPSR

[13] = target: T6, Glycogen synthase kinase-3 beta; assay: Binding affinity to GSK3B (unknown origin) assessed as change in melting temperature of protein at 10 uM by Sypro-orange dye based DSF assay
Target sequence in this assay (P49841 whole entry, looked up): as the sequence (P49841 whole entry) above

ΔTm [1] [°C]	ΔTm [2] [°C]	IC50 [3] [nM]	IC50 [4] [nM]	IC50 [5] [nM]	IC50 ([6]; read-out: IC50) [nM]	IC50 [7] [nM]	IC50 [8] [nM]	IC50 [9] [nM]	IC50 [10] [nM]	ΔTm [11] [°C]	IC50 [12] [nM]	ΔTm [13] [°C]	IC50 [6]	SMILES
5	5	32.5	9.11	3.16	1570	11	21.1	32	143	9	1420	5	–	COC(=N)c1nc2ccc3ncnc(Nc4ccc(OC)cc4F)c3c2s1
5	5	88.8	7.44	10.8	–	22.8	93.2	59	221	9	> 10000	5	Not Active	COC(=N)c1nc2ccc3ncnc(Nc4ccc(Cl)cc4Cl)c3c2s1

Reference: ChEMBL document CHEMBL4715790, “An Unusual Binding Model of the Methyl 9-Anilinothiazolo[5,4-f] quinazoline-2-carbimidates (EHT 1610 and EHT 5372) Confers High Selectivity for Dual-Specificity Tyrosine Phosphorylation-Regulated Kinases” (J Med Chem, 2016)
